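96-well plates; 48 h exposure; 5 concentrations. Endpoints by linear interpolation between flanking doses. Not reached: highest tested concentration assigned. GI50 is the concentration that inhibits growth by half. The concentration for full growth arrest is given as TGI.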 A value given as a limit tells only on which side of the number the result lay.

What all share (assay): NCI anticancer screen, dose series, 48 h
In test [1] the test system is LXFL 529 NSCLC.
Test [2] relates to RPMI-8226 leukemia.
Test [3] concerns M14 melanoma.
Test [4] has as its system SN12C renal.
Test [5] deals with HCT-15 colon.
For test [6], the system named is HCT-116 colon.
In test [7] the test system is SNB-75 CNS.
The subject of test [8] is XF 498 CNS.
Test [9] relates to PC-3 prostate.
Test [10] concerns MDA-MB-435.

For the compound `CC12c3ccccc3C(OC=O)(c3ccccc31)C1(C)c3ccccc3C2(OC=O)c2ccccc21`, the TGI in [1], in test [2], in test [3], in test [4], in [5] and in test [6] was over 100 µM in each case. The same compound came in with a TGI in test [7] of over 100 µM.
Turning to `CCOc1ccc(OCC(=O)O)c2c1CCCC2=O`, the TGI in [1], in test [2], in test [3], in test [4], in test [5] and in test [8] was over 100 µM in each case. Also, the TGI in test [7] was over 100 µM.
`COC(=N)c1csc(C2OC(CO)C(O)C2O)n1` (stereo not drawn): the TGI in test [1], in test [2], in test [3], in test [4], in [5] and in test [6] was over 100 µM in each case. The TGI in [8] was over 100 µM.
Regarding `COc1cc(OC)c(OC)cc1/C=N/NC(=O)N/N=C/c1cc(OC)c(OC)cc1OC`, the TGI in test [1], in test [2], in [3], in [4], in test [5] and in test [6] was over 100 µM throughout. The TGI in test [8] is over 100 µM; in test [7] it was 52.3 µM.
Take `CCOC(=O)C(Br)=C1OC(=O)c2ccccc2-c2ccccc21` (mixture of isomers): the TGI in [1] amounted to 26.5 µM; in [2], 38.1 µM; in test [3], 37.1 µM; in [4], 56.4 µM; in test [5], 40 µM; in test [6] it was 34 µM. Moreover, the TGI in test [8] worked out at 38.5 µM; in test [7], 51 µM.
On to `O=C(c1ccc([N+](=O)[O-])cc1[N+](=O)[O-])N(/N=C/C=C/c1ccccc1)c1nnc(-c2ccccc2)c(-c2ccccc2)n1`, for which the TGI was over 100 µM in [2]; over 100 µM in [3]; over 100 µM in [4]; over 100 µM in test [5]; 42.3 µM in test [8]; 86.8 µM in test [7].
As for `CCOc1ccc(NC(=O)CC2SC(=Nc3ccc(C)cc3C)NC2=O)cc1` (stereo not drawn), the TGI in [1], in [2], in [3], in [4], in test [5] and in test [6] was over 100 µM in each case. Moreover, the TGI in [8] and in [7] was over 100 µM each time.
Regarding `CCC(C)(C)n1c(C)nc2c1C(=O)c1ccccc1C2=O`, the TGI is over 100 µM in test [1]; over 100 µM in test [3]; over 100 µM in test [4]; over 100 µM in test [5]; 35.8 µM in [6]; 46.7 µM in test [8]. The TGI in test [7] is over 100 µM.
`CN1Nc2ccccc2CC1=O`: the TGI in test [2], in test [3], in test [4], in test [5], in test [6] and in test [8] was over 100 µM throughout. For the same compound, in [7], the TGI was over 100 µM.
Turning to `O=C1C=C(Nc2ccc(Cl)cc2C(=O)c2ccccc2)c2ccccc2C1=O`, the TGI in [1], in test [3], in test [4], in test [5], in test [6] and in test [8] was over 100 µM in each case. Moreover, in test [7], the TGI is over 100 µM.
Take `Oc1oc(C(=C2N=c3ccccc3=N2)c2ccc(Cl)cc2)c(O)c1-c1ccc(Cl)cc1`: the TGI in test [1] is 12.2 µM; in test [2], 8.12 µM; in [3], 18 µM; in test [4] it was over 100 µM; in test [6], 9.14 µM; in test [7], 13 µM.
For the compound `CCCCCCCCSC1=C(Cl)C(=O)C(OC)=C(OC)C1=O`, the TGI in test [2] is over 100 µM; in [3], 16.9 µM; in test [9], 31.9 µM; in [4] it was 18.4 µM; in test [5] it was 72.5 µM; in [6], 19.8 µM. The results for the TGI in [7] and in [10] were 46.3 µM and 35.4 µM, respectively.
With `C=C(C)C(C1C=C(CCC(C=O)=C(C)C)C(=O)O1)C1(OC)C=C(C)C(=O)O1` (stereo not drawn), the GI50 in test [2] was over 100 µM; in test [3], over 100 µM; in test [9] it was over 100 µM; in test [4], over 100 µM; in test [5], over 100 µM; in test [6], 49.5 µM. Besides, the GI50 in test [7] and in [10] was over 100 µM in each case. Besides, the TGI in [2], in test [3], in test [9], in test [4], in test [5] and in test [6] was over 100 µM in each case. For the same compound, the TGI in test [7] and in test [10] was over 100 µM throughout.
Regarding `C[C@H](CCOc1cccc(CC(=O)O)c1)N(Cc1cccc(C(F)(F)F)c1Cl)CC(c1ccccc1)c1ccccc1`, the GI50 in test [2] is 3.48 µM; in test [3], 7.23 µM; in [9] it was 4.64 µM; in test [4], 5.33 µM; in test [5], 3.25 µM; in test [6] it was 3.68 µM. Further, the GI50 in [7] was 9.83 µM; in [10], 7.02 µM. The TGI in test [2] stood at 22.1 µM; in test [3], 24.2 µM; in [9], 17.4 µM; in test [4], 18.7 µM; in test [5] it was 12.3 µM; in test [6], 13.6 µM. The TGI in test [7] turned out to be 22 µM; in [10] it was 20.2 µM.

The values above are taken from PubChem BioAssay (NCI).
